Measured values as given in US8222260B2, “Substituted 6-anilinopurine derivatives as inhibitors of cytokinin oxidase/dehydrogenase and preparations containing these derivatives” (Univerzita Palackego V Olomouci, priority 2007, dated 2012).

What was measured:
recombinant AtCKX2 = molecular target: T1, recombinant AtCKX2 (Arabidopsis thaliana, UniProt Q9FUJ3); assay: Inhibition of cytokinin oxidase/dehydrogenase activity (PMS/MTT microtitre plate assay); type: biochemical; conditions: 30 μM iP as substrate, pH 7.4, 37° C.; means of three replicates; read-out: IC50, inhibition of recombinant AtCKX2
T1 sequence (Q9FUJ3 23-501): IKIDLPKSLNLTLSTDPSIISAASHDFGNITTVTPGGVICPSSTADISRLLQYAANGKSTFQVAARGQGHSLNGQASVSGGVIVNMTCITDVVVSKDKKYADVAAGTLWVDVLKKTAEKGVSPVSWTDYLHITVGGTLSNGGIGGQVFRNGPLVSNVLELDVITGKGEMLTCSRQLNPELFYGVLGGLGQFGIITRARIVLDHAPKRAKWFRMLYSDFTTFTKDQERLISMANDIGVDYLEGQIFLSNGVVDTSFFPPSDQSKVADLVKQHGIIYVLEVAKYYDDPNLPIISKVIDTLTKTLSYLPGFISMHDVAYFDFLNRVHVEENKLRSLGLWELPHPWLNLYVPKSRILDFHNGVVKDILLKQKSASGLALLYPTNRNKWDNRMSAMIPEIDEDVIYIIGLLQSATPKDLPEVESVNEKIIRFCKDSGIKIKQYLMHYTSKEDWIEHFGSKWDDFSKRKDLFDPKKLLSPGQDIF
How it was run: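 Cell-free culture medium of S. cerevisiae 23344c expressing AtCKX2 was incubated with compound (3×10^−7–3×10^−4 M) and 30 μM iP in 0.1 M KH2PO4 pH 7.4 with 1 mM MTT/0.2 mM PMS, 30 min, 37 °C, dark. A578 was read after acetic-acid stop, minus no-iP blank. IC50 came from dose-response curves, mean of three replicates.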

[1] = tested on: cytokinin-dependent tobacco callus Nicotiana tabacum L. cv. Wisconsin 38; assay: Tobacco callus biotest (plant cell division); type: cell-based; conditions: at the concentration with highest activity, relative to 10^−5 M kinetin
CRE1/AHK4 = CRE1/AHK4 (Arabidopsis thaliana, UniProt Q9C5U0); assay: Activation of cytokinin receptors (E. coli KMI001 beta-galactosidase reporter); type: cell-based; conditions: 17 h incubation; n.a. means no activation
How it was run: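 E. coli KMI001 carrying the receptor plasmid was grown in M9 + 0.1% casamino acids at 25 °C, diluted 1:600 and treated with compound (stock solutions 10^-7–5×10^-5 M). Supernatant β-galactosidase was read by 4-methylumbelliferyl galactoside hydrolysis (1 h, 37 °C, Na2CO3 stop). EC50 came from dose-response curves, triplicate means.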

[2] = tested on: T-lymphoblastic leukemia cell line CEM; assay: Calcein AM cytotoxicity assay; type: cell-based, human; conditions: Homo sapiens, 72 hours

Chain of CRE1/AHK4 (Q9C5U0 whole entry): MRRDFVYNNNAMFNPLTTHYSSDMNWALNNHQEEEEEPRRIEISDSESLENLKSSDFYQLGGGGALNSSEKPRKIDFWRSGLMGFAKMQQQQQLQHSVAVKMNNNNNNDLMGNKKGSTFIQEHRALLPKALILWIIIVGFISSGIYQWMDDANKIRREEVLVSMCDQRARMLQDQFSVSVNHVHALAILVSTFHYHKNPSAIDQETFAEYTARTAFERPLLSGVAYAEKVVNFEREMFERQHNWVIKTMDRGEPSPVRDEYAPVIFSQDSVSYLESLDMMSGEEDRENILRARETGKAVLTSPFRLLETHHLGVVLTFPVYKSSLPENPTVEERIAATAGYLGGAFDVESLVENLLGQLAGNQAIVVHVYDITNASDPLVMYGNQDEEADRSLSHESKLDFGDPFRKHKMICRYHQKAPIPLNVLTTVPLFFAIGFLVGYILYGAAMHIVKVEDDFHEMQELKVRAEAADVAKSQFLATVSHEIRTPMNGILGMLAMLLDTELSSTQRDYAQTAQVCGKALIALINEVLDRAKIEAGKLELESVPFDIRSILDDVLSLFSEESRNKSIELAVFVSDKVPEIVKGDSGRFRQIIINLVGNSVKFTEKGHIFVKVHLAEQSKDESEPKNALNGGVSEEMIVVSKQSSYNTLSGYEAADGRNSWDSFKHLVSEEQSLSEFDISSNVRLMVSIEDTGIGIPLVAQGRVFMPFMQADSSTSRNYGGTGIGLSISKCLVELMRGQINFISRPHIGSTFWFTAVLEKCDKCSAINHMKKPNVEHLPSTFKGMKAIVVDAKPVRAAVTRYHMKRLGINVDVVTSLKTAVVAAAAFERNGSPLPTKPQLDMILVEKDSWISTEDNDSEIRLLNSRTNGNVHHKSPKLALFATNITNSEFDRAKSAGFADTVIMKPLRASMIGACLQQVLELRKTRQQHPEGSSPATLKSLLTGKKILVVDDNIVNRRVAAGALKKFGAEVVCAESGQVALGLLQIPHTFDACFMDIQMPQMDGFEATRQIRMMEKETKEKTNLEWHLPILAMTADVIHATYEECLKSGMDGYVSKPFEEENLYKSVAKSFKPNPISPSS

Structure (SMILES)	IC50 (recombinant AtCKX2)	Activity (%) [10^−5 mol · l^−1 K = 100%] [1]	EC50 (CRE1/AHK4)	GI50 [2]
Fc1cccc(Nc2nc(Cl)nc3nc[nH]c23)c1 [Compound 6, 2-Chloro-6-(3-fluoroanilino)purine]	12.2 µM	119.7%	–	–
COc1cccc(Nc2nc(F)nc3nc[nH]c23)c1 [Compound 51, 2-Fluoro-6-(3-methoxyanilino)purine]	0.4 µM	120.5%	43 µM	–
Nc1nc(Nc2cccc(O)c2)c2nc[nH]c2n1 [Compound 72]	–	–	> 50 µM	–
Nc1nc(Nc2cccc(Cl)c2)c2nc[nH]c2n1 [Compound 66]	25.6 µM	–	–	–
Clc1cccc(Nc2nc(Cl)nc3nc[nH]c23)c1 [Compound 3, 2-Chloro-6-(3-chloroanilino)purine]	6.3 µM	110%	7.5 µM	> 167 µM
Fc1cccc(Nc2nc(S)nc3[nH]cnc23)c1 [Compound 83]	22.6 µM	102.5%	–	–
Clc1ccc(Nc2nc(Cl)nc3[nH]cnc23)cc1 [Compound 4]	24.1 µM	102%	–	> 167 µM
c1coc(CNc2ncnc3nc[nH]c23)c1 [Kinetin, 6-furfurylaminopurine, reference compound]	–	100%	–	155 µM
COc1cccc(Nc2nc(Cl)nc3nc[nH]c23)c1 [Compound 12, 2-Chloro-6-(3-methoxyanilino)purine]	0.8 µM	122%	31.3 µM	–
Oc1cccc(Nc2nc(F)nc3[nH]cnc23)c1 [Compound 48]	11.8 µM	104.2%	49.6 µM	–
Fc1nc(Nc2cccc(Cl)c2)c2nc[nH]c2n1 [Compound 42]	15.3 µM	121%	21 µM	> 167 µM
Fc1nc(Nc2ccccc2)c2nc[nH]c2n1 [Compound 40]	–	108.1%	46.2 µM	> 167 µM
Oc1cccc(Nc2nc(Cl)nc3nc[nH]c23)c1 [Compound 9, 2-Chloro-6-(3-hydroxyanilino)purine]	3.5 µM	116.2%	37.1 µM	–
Clc1nc(Nc2ccccc2)c2[nH]cnc2n1 [Compound 1, 2-Chloro-6-anilinopurine]	22.6 µM	–	–	> 167 µM
